Values of other authors as cited in US6821974B2, “Stable pharmaceutical compositions” (Barbeau Pharma, Inc, priority 2002, dated 2004).
Read-outs that look alike come from different tables or passages of the source.

Tests used:
[1] = 20 mg/ml sterile injection solutions

storage time after which submicron particles appear [1]: 6-12 months
SMILES: NNc1nncc2ccccc12 [Hydralazine, 1-hydrazinophthalazine]
onset of action (given intravenously): 10 to 20 min | duration of action (in vivo): 3 to 4 h | maximum hypotensive effect (in vivo): 10 to 80 min | onset of action (in vivo): 10 to 30 min
